Activity calls are given as the source filed them. The rule behind the calls is not given here.

Experimental findings from ChEMBL document CHEMBL4482312, “HTS Assay for Identifying Small Molecule Inhibitors of RAD52 and Uses of Identified Small Molecule Inhibitors for Treatment and Prevention of BRCA-Deficient Malignancies” (2018) are described below.

The target of series [1] is T1, DNA repair protein RAD52 homolog (Homo sapiens) (UniProt P43351).
T1 sequence (whole entry): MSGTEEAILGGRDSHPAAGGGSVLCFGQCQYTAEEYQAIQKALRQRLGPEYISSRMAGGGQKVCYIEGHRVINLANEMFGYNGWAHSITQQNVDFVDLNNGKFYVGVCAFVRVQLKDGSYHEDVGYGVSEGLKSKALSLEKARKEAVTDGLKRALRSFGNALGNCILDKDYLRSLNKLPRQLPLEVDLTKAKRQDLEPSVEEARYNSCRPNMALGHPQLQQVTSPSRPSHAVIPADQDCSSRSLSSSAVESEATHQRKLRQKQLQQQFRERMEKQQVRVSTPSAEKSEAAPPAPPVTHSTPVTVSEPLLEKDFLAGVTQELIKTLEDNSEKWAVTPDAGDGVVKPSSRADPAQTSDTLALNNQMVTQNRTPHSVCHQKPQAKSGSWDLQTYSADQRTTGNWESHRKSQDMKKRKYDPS
Briefly: Effect on oligomeric ring of RAD52 (unknown origin) by dynamic light scattering assay.

Series [2] addresses T1, DNA repair protein RAD52 homolog (Homo sapiens). The series can be described thus: Induction of protein aggregation of RAD52 (unknown origin) by dynamic light scattering assay.
For series [3] the target is unchanged. Briefly: Inhibition of RAD52 (unknown origin) assessed as reduction in RAD52-ssDNA interaction using Cy3-dT30-Cy5 ssDNA in presence of 0.01% Triton-X100 by FRET assay.
The species named for series [4] is Homo sapiens. Briefly: Binding affinity to RPA (unknown origin) at 40 uM by water-logsy NMR method.
Series [5] is filed under the species Homo sapiens. Briefly: Binding affinity to RPA (unknown origin) assessed as effect on RPA-ssDNA interaction at 40 uM by water-logsy NMR method.
For series [6], the species on record is Homo sapiens. The series can be described thus: Inhibition of RAD52 (unknown origin) interaction with RPA (unknown origin).
The target of series [7] is T1, DNA repair protein RAD52 homolog (Homo sapiens). The series can be described thus: Inhibition of RAD52 in checkpoint deficient HU-treated in hTERT-immortalized wild-type human GM01604 fibroblasts assessed as decrease in MUS81/EME1/RAD52-dependent DSB formation by measuring mean tail moment in presence of […] by neutral comet assay.
Series [8] has the same target. The series can be described thus: Inhibition of RAD52 in checkpoint deficient HU-treated in hTERT-immortalized wild-type human GM01604 fibroblasts assessed as inhibiting RAD52-MUS81-dependent DSBs at stalled replication forks in presence of […] by neutral comet assay.
Series [9] has the same target. The series can be described thus: Inhibition of RAD52 in checkpoint deficient HU-treated in hTERT-immortalized wild-type human GM01604 fibroblasts assessed as decrease in MUS81/EME1/RAD52-dependent DSB formation by measuring mean tail moment at 500 nM in presence of […] by neutral comet assay.
Series [10] has the same target. The series can be described thus: Inhibition of RAD52 in checkpoint deficient in hTERT-immortalized wild-type human GM01604 fibroblasts assessed as decrease in MUS81/EME1/RAD52-dependent DSB formation by measuring mean tail moment in presence of […] in presence of RAD52 siRNA by neutral comet assay.
The species named for series [11] is Homo sapiens. Briefly: Induction of anaphase bridge accumulation in checkpoint deficient HU-treated in hTERT-immortalized wild-type human GM01604 cells assessed as decrease in MUS81/EME1/RAD52-dependent DSB formation by measuring mean tail moment in presence of […] by neutral comet assay. The class given is functional.
Series [12] concerns the target T1, DNA repair protein RAD52 homolog (Homo sapiens). The series can be described thus: Inhibition of RAD52 in hTERT-immortalized wild-type human GM01604 fibroblasts with BRCA2 knockdown assessed as potentiation of HU and UCN01-induced cell death by Live/Dead assay.
Series [13] shares this target. The series can be described thus: Binding affinity to RAD52 (unknown origin) at 20 uM by water-logsy NMR method.
For series [14], the species on record is Homo sapiens. Briefly: Binding affinity to RPA (unknown origin) at 20 uM by water-logsy NMR method.
Series [15] is filed under the species Homo sapiens. Briefly: Binding affinity to RPA (unknown origin) assessed as effect on RPA-ssDNA interaction at 20 uM by water-logsy NMR method.
Series [16] addresses T1, DNA repair protein RAD52 homolog (Homo sapiens). Briefly: Inhibition of RAD52 in hTERT-immortalized wild-type human GM01604 fibroblasts with MUS81 knockdown assessed as potentiation of HU and UCN01-induced cell death by Live/Dead assay.
For series [17] the target is unchanged. The series can be described thus: Inhibition of RAD52 in hTERT-immortalized wild-type human GM01604 fibroblasts in presence of BRCA2 siRNA NA RAD52 siRNA assessed as potentiation of HU-induced cell death by Live/Dead assay relative to control.
For series [18] the target is unchanged. Briefly: Inhibition of RAD52 in hTERT-immortalized wild-type human GM01604 fibroblasts assessed as cell death at 1 uM relative to control. Also on record: scale not given: the % may be the effect or the level left.
The target of series [19] is T2, DNA repair protein RAD52 homolog (Homo sapiens, UniProt P43351).
T2 sequence (P43351 whole entry): T1 sequence (whole entry)
Briefly: Inhibition of RAD52 (unknown origin) assessed as reduction in RAD52-ssDNA interaction using Cy3-dT30-Cy5 ssDNA by FRET assay.

Series [20] is described as follows: Solubility in 30 mM Tris-acetate buffer pH 7.5 in presence of 1 mM DTT at 115 uM. Format: physicochemical. To be noted: pH 7.5, 115 µM.
Series [21] deals with T2, DNA repair protein RAD52 homolog. Briefly: Inhibition of RAD52 (unknown origin) assessed as effect on RAD52-mediated annealing of complementary oligonucleotides using T-28 ssDNA substrate by FRET assay.
Series [22] is described as follows: Solubility in DMSO at 25 mM. To be noted: 25000 µM. Format: physicochemical.
Series [23] has as its target T1, DNA repair protein RAD52 homolog (Homo sapiens). The series can be described thus: Inhibition of RAD52 (unknown origin) assessed as reduction in RAD52-dsDNA interaction by FRET assay.
Series [24] has the same target. The series can be described thus: Binding affinity to RAD52 (unknown origin) by water-logsy NMR method.
The species named for series [25] is Homo sapiens. The series can be described thus: Binding affinity to RPA (unknown origin) assessed as effect on RPA-ssDNA interaction by water-logsy NMR method.
The species named for series [26] is Homo sapiens. The series can be described thus: Binding affinity to RPA (unknown origin) by water-logsy NMR method.
Series [27] in a line: Solubility in 30 mM Tris-acetate buffer pH 7.5 in presence of 1 mM DTT at 10 uM. To be noted: pH 7.5, 10 µM. Format: physicochemical.

As for `O=C(O[C@@H]1Cc2c(O)cc(O)cc2O[C@@H]1c1cc(O)c(O)c(O)c1)c1cc(O)c(O)c(O)c1`, the result in series [1], in series [2], in series [5] and in [11] was inactive. Also, the inhibition result in series [3], in series [8], in series [9] and in series [10] was “Active” throughout. Also, the outcome in [4] was Active. Besides, in series [6], the inhibition result was “inactive”. For the same molecule, the inhibition result in series [7] was “Dose-dependent effect”.

Turning to `Oc1cc(O)c2c(c1)O[C@H](c1cc(O)c(O)c(O)c1)[C@H](O)C2`, the inhibition result in [12], in series [3], in series [8], in series [9], in series [10] and in series [16] was “Active” in each case. Moreover, the inhibition result in [17] is “Active”. In addition, the result in series [1], in series [2], in series [14], in [15] and in series [11] was inactive. Further, the result in series [13] was Active. The inhibition result in series [6] was “inactive”. The inhibition result in [7] was “Dose-dependent effect”. In addition, the Activity in series [18] was 40%.

As to `O=c1c2ccccc2nc(CSc2[nH]cnc3ncnc2-3)n1-c1cccc(C(F)(F)F)c1`, the IC50 result in [19] is listed as “Nd(Insoluble)”. For the same molecule, the solubility entry in series [20] was “Insoluble”.

As for `COc1cc(N)c(Cl)cc1C(=O)N[C@H]1CCN(CCCOc2ccc(F)cc2)C[C@H]1OC.O`, in series [21], the IC50 result is given as “Not Active”.

As to `CCOc1ccccc1NC(=O)c1c(NC(=O)Cc2ccc(OC)cc2)sc2c1CCC2`, in [19], the IC50 entry is reported as “Nd(Insoluble)”. Further, in series [22], the solubility entry is on record as “Insoluble”.

With `O=C(O[C@@H]1O[C@@H]2COC(=O)c3cc(O)c(O)c(O)c3-c3c(cc(O)c(O)c3O)C(=O)O[C@H]([C@H]1O)[C@@H]2O)c1cc(O)c(O)c(O)c1`, in series [23], the inhibition result was “inactive”. In addition, the result in series [24] and in series [26] was Active. Further, the outcome in series [25] was inactive.

On to `NCCc1cc(O)c(O)cc1O` [OXIDOPAMINE], for which the IC50 result in [21] is on record as “Not Active”.

On to `Oc1cc(O)c2c(c1)O[C@H](c1ccc(O)c(O)c1)[C@H](O)C2` [(-)-EPICATECHIN], for which the IC50 result in series [21] is “Not Active”.

Take `CC1(C)C(=O)C=C[C@@]2(C)C1=C(O)C(=O)[C@]1(C)[C@@H]2CC[C@@]2(C)[C@H](c3ccoc3)C[C@H]3O[C@]321` [CEDRELONE]: the IC50 entry in series [21] is listed as “Not Active”.

For `CCOc1cc(C(Nc2cc(C)ccn2)c2ccc3ccc(C)nc3c2O)ccc1OC` (stereo not drawn), in series [19], the IC50 entry was “Nd(Insoluble)”. The solubility entry in [27] is “Insoluble”.

Regarding `CC(C)(O)C1Cc2cc3ccc(=O)oc3cc2O1` (stereo not drawn), the IC50 result in series [19] is on record as “Not Active”.

With `CN(C)[C@@H]1C(O)=C(C(=O)NCN2CCCC2)C(=O)[C@@]2(O)C(O)=C3C(=O)c4c(O)cccc4[C@@](C)(O)[C@H]3C[C@@H]12` [ROLITETRACYCLINE], in [21], the IC50 entry was “Not Active”.
